These results are taken from ChEMBL document CHEMBL1159273, “[Cytotoxicity of aspidospermane indole alkaloids with a modified tryptamine chain]” (J Nat Prod, 1995).

This test relates to L1210. As to the kind of experiment: Cytotoxicity against mouse L1210 cells after 48 hrs by MTT method. Type of test: functional, cell-based. Particulars: L1210, 48 h.
The IC50 is the concentration that inhibits the measured activity by half. Turning to `CC[C@]12CCCN3C[C@@H](Br)[C@@]4(c5ccccc5N[C@H]4[C@@](Cl)(C(=O)OC)C1)[C@@H]32`, the midpoint of inhibition, the IC50, lay at 46.8 µM.

`CC[C@]12CCCN3[C@@H](OC)C[C@]4(C(=Nc5ccccc54)[C@@](Cl)(C(=O)OC)C1)[C@@H]32` returned an IC50 of 3.1 µM.

Take `CC[C@]12CCCN3CC[C@@]4(c5ccccc5N5[C@H]4[C@]5(C(=O)OC)C1)[C@@H]32`: the half-maximal inhibitory concentration (IC50) was found to be 156 µM.

`CC[C@]12CCCN3C[C@@H](Br)[C@@]4(c5ccccc5N5[C@H]4[C@]5(C(=O)OC)C1)[C@@H]32` registered an IC50 of 141 µM. The IC50 values of the last two molecules are within 1.5-fold of each other.

On to `CC[C@]12CCC[N+]3([O-])CC[C@]4(C(=Nc5ccccc54)[C@@](Cl)(C(=O)OC)C1)[C@H]23` (some centres not stated), for which the IC50 worked out at 27.4 µM.

The molecule `CC[C@]12CCC[N+]3([O-])C[C@@H](Br)[C@]4(C(=Nc5ccccc54)[C@@](Cl)(C(=O)OC)C1)[C@H]23` (some centres not stated) showed an IC50 of 14.1 µM.

The molecule `COc1cccc2c1C(=O)c1c(O)c3c(c(O)c1C2=O)C[C@@](O)(C(=O)CO)C[C@@H]3O[C@H]1C[C@H](N)[C@H](O)[C@H](C)O1` [DOXORUBICIN] gave an IC50 of 0.03 µM. Against the preceding molecule, the IC50 is about 470-fold lower.
